Data as given in patent publication US20050203110A1, “Mitotic kinesin inhibitors” (priority 2002, published 2005).

Each compound was assayed against T1, human KSP motor domain (KSP(367H)) (Homo sapiens, UniProt P52732) (assay: Kinesin ATPase In Vitro Assay). Settings: kinesin motor domain with microtubules, 1 mM ATP, 23° C.; free phosphate by quinaldine red/ammonium molybdate, absorbance 540 nm.
T1 construct: were used to amplify the motor domain and the neck linker region; made in house; host or cells: E. coli BL21 (DE3), pRSETa
T1 sequence (P52732 18-359 limits assumed): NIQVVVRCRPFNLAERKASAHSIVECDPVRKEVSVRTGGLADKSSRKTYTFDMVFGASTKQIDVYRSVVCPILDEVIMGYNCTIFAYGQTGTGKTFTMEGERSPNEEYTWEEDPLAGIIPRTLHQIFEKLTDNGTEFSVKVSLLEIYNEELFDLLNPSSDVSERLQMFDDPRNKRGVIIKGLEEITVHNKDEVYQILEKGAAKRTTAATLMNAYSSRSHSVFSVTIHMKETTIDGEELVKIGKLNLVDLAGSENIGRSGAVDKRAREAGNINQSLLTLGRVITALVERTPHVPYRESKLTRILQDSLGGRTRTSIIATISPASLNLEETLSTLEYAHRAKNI
Type: biochemical
Description: I. Kinesin ATPase In Vitro Assay
Cloning and Expression of Human Poly-Histidine Tagged KSP Motor Domain (KSP(367H))
Plasmids for the expression of the human KSP motor domain construct were cloned by PCR using a pBluescript full length human KSP construct (Blangy et al., Cell, vol. 83, pp1159-1169, 1995) as a template. The N-terminal primer 5′-[…] (SEQ.ID.NO.: 1) and the C-terminal primer 5′-[…] […] (SEQ.ID.NO.: 2) were used to amplify the motor domain and the neck linker region. The PCR products were digested with AseI and XhoI, ligated into the NdeI/XhoI digestion product of pRSETa (Invitrogen) and transformed into E. coli BL21 (DE3).
Cells were grown at 37° C. to an OD600 of 0.5. After cooling the culture to room temperature expression of KSP was induced with 100 μM IPTG and incubation was continued overnight. Cells were pelleted by centrifugation and washed once with ice-cold PBS. Pellets were flash-frozen and stored −80° C.
Cell pellets were thawed on ice and resuspended in lysis buffer (50 mM K-HEPES, pH 8.0, 250 mM KCl, 0.1% Tween, 10 mM imidazole, 0.5 mM Mg-ATP, 1 mM PMSF, 2 mM benzimidine, 1× complete protease inhibitor cocktail (Roche)). Cell suspensions were incubated with 1 mg/ml lysozyme and 5 mM β-mercaptoethanol on ice for 10 minutes, followed by sonication (3×30 sec). All subsequent procedures were performed at 4° C. Lysates were centrifuged at 40,000×g for 40 minutes. Supernatants were diluted and loaded onto an SP Sepharose column (Pharmacia, 5 ml cartridge) in buffer A (50 mM K-HEPES, pH 6.8, 1 mM MgCl2, 1 mM EGTA, 10 μM Mg-ATP, 1 mM DTT) and eluted with a 0 to 750 mM KCl gradient in buffer A. Fractions containing KSP were pooled and incubated with Ni-NTA resin (Qiagen) for one hour. The resin was washed three times with buffer B (Lysis buffer minus PMSF and protease inhibitor cocktail), followed by three 15-minute incubations and washes with buffer B. Finally, the resin was incubated and washed for 15 minutes three times with buffer C (same as buffer B except for pH 6.0) and poured into a column. […]
The kinesin motor domain is incubated with microtubules, 1 mM ATP (1:1 MgCl2:Na-ATP), and compound at 23° C. in buffer containing 80 mM K-HEPES (pH 7.0), 1 mM EGTA, 1 mM DTT, 1 mM MgCl2, and 50 mM KCl. […] Free phosphate from the ATP hydrolysis reaction is measured via a quinaldine red/ammonium molybdate assay by adding 150 μl of quench C buffer containing a 2:1 ratio of quench A:quench B. Quench A contains 0.1 mg/ml quinaldine red and 0.14% polyvinyl alcohol; quench B contains 12.3 mM ammonium molybdate tetrahydrate in 1.15 M sulfuric acid. The reaction is incubated for 10 minutes at 23° C., and the absorbance of the phospho-molybdate complex is measured at 540 nm.

IC50, ≤ 50 µM:
CCC(c1nc2cnccc2c(=O)n1Cc1ccccc1)N(CCN(C)C)C(=O)c1ccc(Br)cc1 (racemic) [Compound 3-7, 2-[1′-(N-4-bromobenzoyl)-(N,N-dimethylethylenediamino)propyl]-3-benzyl-pyrido[3,4-d]pyrimidin-4(3H)-one]
CCC(c1nc2ncccc2c(=O)n1Cc1ccccc1)N(CCN(C)C)C(=O)c1ccc(Br)cc1 (stereo not shown) [Compound 1-6, N-[1-(3-benzyl-4-oxo-3,4-dihydropyrido[2,3-d]pyrimidin-2-yl)propyl]-4-bromo-N-[2-(dimethylamino)ethyl]benzamide]
CCC(c1nc2c(c(=O)n1Cc1ccccc1)CCCN2)N(CCN(C)C)C(=O)c1ccc(Br)cc1 (stereo not shown) [Compound 2-2, N-[1-(3-benzyl-4-oxo-3,4,5,6,7,8-hexahydropyrido[2,3-d]pyrimidin-2-yl)propyl]4-bromo-N-[2-(dimethylamino)ethyl]benzamide]
CCC(c1nc2cccnc2c(=O)n1Cc1ccccc1)N(CCN(C)C)C(=O)c1ccc(Br)cc1 (stereo not shown) [Compound 5-6, N-[1-(3-benzyl-4-oxo-3,4-dihydropyrido[3,2-d]pyrimidin-2-yl)propyl]-4-bromo-N-[2-(dimethylamino)ethyl]benzamide]
